Measurements: patent US9987247B2, “Drugs for treating diseases of cervical and/or lumbar vertebrae” (priority 2013, dated 2018)

Tests used:
lumbar disc herniation = test: Treatment of patients with lumbar disc herniation with oral benzbromarone (case reports); type: in vivo, human
[1] = test system: cervical disc herniation / cervical disease; test: Treatment of patients with cervical disc herniation / cervical disease with oral benzbromarone (case reports); type: in vivo, human
From the text: The clinical effect criteria of the drug of the present application for treating cervical spondylosis can also be evaluated 2 weeks after treatment.

[2] = Patient A, 100 mg first day then 50 mg once a day, after five days
[3] = Patient A, 100 mg first day then 50 mg once a day, after two days
[4] = Patient B, 50 mg once a day, after seven days
[5] = Patient C, 12.5 mg once a day, after continuous administration for six days
[6] = Patient H, 100 mg once a day plus sodium bicarbonate, after six days
[7] = Patient L, 100 mg once a day plus sodium bicarbonate, after seven days

For CCc1oc2ccccc2c1C(=O)c1cc(Br)c(O)c(Br)c1 [benzbromarone], the painful symptoms (lumbar disc herniation; Patient A, about 75 kg, once a day, 100 mg first day then 50 mg, after one day) was “lessened”, the pain (lumbar disc herniation; [2]) was “basically disappeared” and the walking (lumbar disc herniation; [2]) was “could walk properly”. For the same compound, the ability to walk (lumbar disc herniation; [3]) was “able to walk”, the painful symptoms (lumbar disc herniation; [3]) was “alleviated obviously” and the recurrence of symptoms (lumbar disc herniation; Patient A, within the next six months) was “haven't occurred”. The painful symptoms (lumbar disc herniation; Patient B, about 60 kg, 50 mg once a day, waist massage first two days, after two days) was “alleviated obviously”, the “ability to walk and work” value (lumbar disc herniation; [4]) was “able to walk and work” and the “pain during severe coughing” value (lumbar disc herniation; [4]) was “no perceptible pain”. The waist pain (lumbar disc herniation; [4]) was “basically disappeared”, the recurrence (lumbar disc herniation; Patient B, within the next three months) was “no recurrence” and the pain (lumbar disc herniation; Patient C, 12.5 mg once a day, waist massage first two days, six days later) was “significantly lessened”. For the same compound, the symptoms of pain (lumbar disc herniation; [5]) was “disappeared”, the “walking and ability to work” value (lumbar disc herniation; [5]) was “walked properly and was able to work” and the “Straight leg raising test” value (lumbar disc herniation; Patient C, 12.5 mg once a day, after continuous administration for six days, positive before treatment) was “negative”. The recurrence (lumbar disc herniation; Patient C, within the next two months) was “no recurrence”, the pain (lumbar disc herniation; Patient D, L4/5 protrusion, 50 mg once a day, no other treatment, three days later) was “significantly lessened” and the “walking, ability to work, pain” value (lumbar disc herniation; Patient D, 50 mg once a day, after six days) was “walked properly and was able to work without pain”. For the same compound, the “Straight leg raising test” value (lumbar disc herniation; Patient D, 50 mg once a day, after six days, positive before treatment) was “negative”, the recurrence (lumbar disc herniation; Patient D, within the next three months) was “no recurrence” and the pain (lumbar disc herniation; Patient F, about 25 mg once a day, waist massage first three days, three days later) was “significantly lessened”. For the same compound, the walking (lumbar disc herniation; Patient F, about 25 mg once a day, after six days) was “walked properly”, the ability to walk (lumbar disc herniation; Patient F, about 25 mg once a day, three days later) was “able to walk” and the recurrence (lumbar disc herniation; Patient F, within the next two months) was “no recurrence”. The pain (lumbar disc herniation; Patient H, about 62 kg, L3/4 protrusion, 100 mg once a day plus sodium bicarbonate tablets 0.5 g three times a day, two days later) was “significantly reduced”, the pain when coughing (lumbar disc herniation; [6]) was “no pain was felt” and the waist pain (lumbar disc herniation; [6]) was “basically disappeared”. For the same compound, the “walking and ability to work” value (lumbar disc herniation; [6]) was “could walk normally, and was able to work”, the “Straight leg raising test” value (lumbar disc herniation; Patient H, 100 mg once a day plus sodium bicarbonate, after six days, positive before treatment) was “negative” and the recurrence (lumbar disc herniation; Patient H, within the next three months) was “No recurrence”. For the same compound, the pain (lumbar disc herniation; [7]) was “basically disappeared”, the “walking and work ability” value (lumbar disc herniation; [7]) was “normal walking, work ability recovery” and the Bragard test (lumbar disc herniation; Patient L, 100 mg once a day plus sodium bicarbonate, after seven days, positive before treatment) was “negative”. The relapse (lumbar disc herniation; Patient L, during the following two months) was “no relapse”, the “symptoms in pain, upper limbs numbness and dizziness” value ([1]; Patient E, cervical intervertebral disc herniation, about 50 mg once a day, no other treatment, six days later) was “relieved” and the “pain and dizziness symptoms” value ([1]; Patient G, cervical disease, about 25 mg once a day, neck massage first three days, eight days later) was “disappeared”. The Fenz signs ([1]; Patient G, about 25 mg once a day, eight days later, positive before treatment) was “negative”, the dizziness symptoms ([1]; Patient I, about 55 kg, cervical disc herniation, capsules 50 mg twice a day plus sodium bicarbonate tablets 0.5 g three times a day, after three days) was “reduced significantly” and the “pain and dizziness symptoms” value ([1]; Patient I, capsules 50 mg twice a day plus sodium bicarbonate, after eight days) was “disappeared”. For the same compound, the “flexion neck rotation test” value ([1]; Patient I, capsules 50 mg twice a day plus sodium bicarbonate, after eight days, positive before treatment) was “negative” and the recurrence ([1]; Patient I, within the next one months) was “no recurrence”.
